Measured values reported in US10526322B2, “Inhibitors of kidney-type glutaminase, GLS-1” (CORNELL UNIVERSITY, priority 2014, dated 2020).

Assays:
WT GAC = target: T1, WT GAC (Mus musculus, UniProt D3Z7P3); assay: In vitro photo cross linking of SU-22 and purification of the conjugate; type: binding; details: 100 nM WT GAC, 10 μM SU-22, UV, A350/A280
T1 construct: (residues 72-603) was cloned into a pET23a vector; made in house
T1 sequence (D3Z7P3 72-603 isoform D3Z7P3-2): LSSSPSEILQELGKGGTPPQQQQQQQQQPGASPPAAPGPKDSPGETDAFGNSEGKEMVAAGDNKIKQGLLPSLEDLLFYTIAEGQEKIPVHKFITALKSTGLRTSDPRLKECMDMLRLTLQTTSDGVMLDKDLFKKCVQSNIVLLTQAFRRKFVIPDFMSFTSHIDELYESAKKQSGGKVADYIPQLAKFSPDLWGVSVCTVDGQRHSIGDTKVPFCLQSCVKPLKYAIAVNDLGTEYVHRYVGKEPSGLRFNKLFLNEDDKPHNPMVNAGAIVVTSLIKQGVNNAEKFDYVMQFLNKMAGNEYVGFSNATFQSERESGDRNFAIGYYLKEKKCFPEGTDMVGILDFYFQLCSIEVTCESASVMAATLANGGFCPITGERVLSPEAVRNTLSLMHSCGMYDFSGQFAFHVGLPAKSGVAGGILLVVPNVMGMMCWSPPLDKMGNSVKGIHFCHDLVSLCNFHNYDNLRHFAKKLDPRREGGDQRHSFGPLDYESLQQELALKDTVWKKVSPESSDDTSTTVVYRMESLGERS
Experimental: Conditions of in vitro cross linking of WT GAC, and the K316E/D391K/R459E GAC mutant were adapted for efficient cross linking and purification of the cross linked protein product. WT GAC and the K316E/D391K/R459E GAC mutant, both containing the N-terminal His-tag, were diluted to a concentration of 100 nM in 20 mM Tris-HCl (pH=8.6) 100 mM NaCl, upon which 10 μM of SU-22 was added. Following a preincubation time of 5 minutes, samples were exposed to UV light under a hand held 500 W UV lamp to initiate the photo cross linking. Immediately following, bovine serum albumin (BSA, Sigma) was added to a final concentration of 2 mg/mL to help stabilize the cross linked product and to bind excess un-reacted SU-22. To isolate the cross linked product, 2.5 mg cobalt agarose beads (Clontech) were added and the solution was gravity filtered. […] The purified cross linked protein was then concentrated using spin columns with a 30 kD molecular weight cutoff and quantified using UV-vis spectroscopy, where the protein was quantified using the A280 (ε280=38,850 M−1 cm−1) and the cross-linked SU-22 using the A350 (ε350=18,900 M−1 cm−1). […]

GAC = target: T2, GAC (Mus musculus, UniProt D3Z7P3); assay: Real-time GAC enzyme activity assay coupled to glutamate dehydrogenase (NADH fluorescence); type: biochemical
T2 construct: (residues 72-603) was cloned into a pET23a vector; His-tag with thrombin cleavage site (N, cleaved yes); made in house
T2 sequence (D3Z7P3 72-603 isoform D3Z7P3-2): T1 sequence (D3Z7P3 72-603 isoform D3Z7P3-2)
Experimental: A plasmid encoding the mouse kidney-type glutaminase isoform 2 (GAC, GenBank Accession No. NP_001106854.1, which is hereby incorporated by reference in its entirety) (residues 72-603) was cloned into a pET23a vector containing an N-terminal histidine (His)-tag and thrombin cleavage site. The expressed protein was purified using Co^2+ affinity beads (Clontech), followed by His-tag cleavage with human thrombin (Haemetologic Technologies) overnight at 4° C., and subsequently purified by anion exchange (GE healthcare) and gel filtration chromatography. Purified GAC was stored in a high salt-containing buffer (20 mM Tris-HCl pH 8.5, 500 mM NaCl, 1 mM NaN3) at −80° C., following snap freezing in liquid N2 for long term use. Labeling recombinant GAC with small molecule probes was performed by exchanging 1.5 mg of enzyme into 50 mM HEPES, pH 7.2, and 100 mM NaCl (labeling buffer), using a PD10 desalting column (GE healthcare). The enzyme was then incubated with 50 μM (5-fold excess of enzyme) of either AlexaFluor 488 succinimidyl ester or QSY9 succinimidyl ester (Molecular Probes) for 1 hour at 4° C. After 1 hour, the labeling reaction was quenched with 150 mM Tris-HCl, pH 8.5, and unreacted probe was separated from labeled-enzyme using a PD10 desalting column, eluting labeled-GAC back into the high salt-containing buffer. The stoichiometry of labeling was determined using the probe manufacturer's reported molar absorptivity values and instructions. Briefly, the concentration of GAC was determined by first correcting absorbance at 280 nm (Abs280) for each probe, using the reported correction values (0.11 for AlexaFluor 488 and 0.23 for QSY-9) and their absorbance values at their absorbance maxima (495 nm and 562 nm, respectively). The corrected Abs280 was used along with the experimentally determined molar absorptivity of GAC (ε280=38,850 M−1 cm−1). AlexaFluor 488 and QSY-9 probes were quantified using their respective absorbance maxima and the manufacturer's reported molar absorptivity values (ε495=71,000 M−1 cm−1 and ε562=85,000 M−1 cm−1).
Real-time fluorescence monitoring of 968 binding and GAC activity through production of NADH was performed on a Varian Cary Eclipse Fluorometer, whereas small molecule inhibition and binding titrations were performed in a 96-well format in a Tecan Saphire absorbance and fluorescence plate reader. Samples for monitoring real-time binding of 968 to 488-GAC were prepared by adding 10 μL of varying concentrations of 968 prepared in DMSO to an equilibrated 1 mL sample of 10 nM 488-GAC, while observing 488 fluorescence (490 nm excitation/520 nm emission). Similarly, this method was replicated for monitoring real-time binding of 968 to mutant forms of GAC, namely 488-labeled GAC (GD391K) and 488-GAC (D391K, K316E, R459E). Real-time activity assays monitoring 968 binding and NADH production were prepared in 1 mL samples, where 10 units of glutamate dehydrogenase (Sigma) and 2 mM NAD+ (Sigma) were prepared in 50 mM Tris-Acetate, pH 8.5, 0.1 mM EDTA and equilibrated at 20° C. WT GAC (10 nM) was added and allowed to equilibrate 2 minutes before monitoring the fluorescence emission of 488-GAC (490 nm excitation, 520 nm emission) and NADH (340 nm excitation, 490 nm emission). Appropriate dilutions of 968 or BPTES prepared in DMSO were introduced after 30 seconds and allowed to equilibrate for 2 minutes before a 180 μL solution of K2HPO4 and glutamine was added to make a final concentration of 50 mM K2HPO4 and 20 mM glutamine, to initiate GAC activation. The activity of GAC was measured in a coupled assay, by monitoring the NADH produced by glutamate dehydrogenase, which converts the product of the glutaminase-catalyzed reaction, glutamate, to α-ketoglutarate and ammonia by reducing NAD+ to NADH. […]

Structure (SMILES) | ratio of cross linked SU-22 to protein (WT GAC) | concentration inhibiting the GAC isoform compared with parent compound 968 (GAC; in vitro inhibition, FIG. 9 / FIG. 11) | inhibition of enzyme activity (GAC; GAC pre-incubated with 968 before adding phosphate)
CC1(C)CC(=O)C2=C(C1)c1c(ccc3cc4ccccc4cc13)NC2c1ccc(N=[N+]=[N-])cc1 (stereo not drawn) [SU-22] | 0.52 | lower concentration than the parent compound, 968 | 
CN(C)c1ccc(C2Nc3ccc4ccccc4c3C3=C2C(=O)CC(C)(C)C3)cc1Br (stereo not drawn) [Compound 968] |  |  | strongly inhibited
